Data: patent US10092648B2, “Selective glucagon-like-peptide-2 (GLP-2) analogues” (Zealand Pharma A/S, priority 2006, dated 2018)
Like-named read-outs stand apart in the source and are kept apart here. Values belong to the molecule of their own block, whether it stands above or below them.

Key:
[1] = amino acid side-chain; defined by W. D. Stein 1967; cited from earlier work
[2] = biological target: T1, hGLP-2 receptor (Homo sapiens, UniProt O95838); assay: In vitro screening for agonism on the GLP-2 receptor recombinantly expressed in BHK-21 cells (CRE-luciferase reporter); assay type: cell-based
T1 construct: expressed in transfected cells; host or cells: BHK-21 (C13) cells, transient transfection with Lipofectamine 2000
T1 sequence (O95838 1-553): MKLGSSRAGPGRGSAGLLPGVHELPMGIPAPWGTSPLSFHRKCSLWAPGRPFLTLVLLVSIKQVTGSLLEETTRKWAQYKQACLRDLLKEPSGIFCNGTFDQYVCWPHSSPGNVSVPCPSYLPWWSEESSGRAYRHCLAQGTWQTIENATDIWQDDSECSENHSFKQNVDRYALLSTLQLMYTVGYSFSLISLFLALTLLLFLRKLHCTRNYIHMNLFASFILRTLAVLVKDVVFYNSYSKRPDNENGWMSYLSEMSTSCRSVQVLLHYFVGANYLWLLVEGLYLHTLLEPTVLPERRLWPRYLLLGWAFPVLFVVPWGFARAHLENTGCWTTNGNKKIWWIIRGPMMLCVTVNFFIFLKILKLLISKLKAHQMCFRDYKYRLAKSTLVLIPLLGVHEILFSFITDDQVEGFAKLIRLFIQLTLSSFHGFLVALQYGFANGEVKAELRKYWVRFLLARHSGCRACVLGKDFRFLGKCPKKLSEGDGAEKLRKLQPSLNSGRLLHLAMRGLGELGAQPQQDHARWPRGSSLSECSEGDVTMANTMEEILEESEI
Protocol: The screening was done using BHK21 cells transiently transfected with GLP-2 receptor and the CRE-luciferase reporter gene construct. Dose-response curves and EC50 values were determined using seven concentrations from 10 fM to 10 nM and triplicate points for each concentration. Control peptide was used on all test plates. BHK-21 cells are seeded in 10 cm TC-Petri dishes and grown to 70-80% confluency. Subsequently, medium is changed to serum-free transfection medium. DNA (7.5 μg hGLP-2 receptor vector and 7.5 μg CRE-luciferase vector) and Lipofectamine 2000 are diluted in OptiMEM, combined, and added to the cells after 20-30 min. Cells are incubated in the incubator at 37° C., 5% CO2 for 4 hr, trypsinized, and reseeded at 35,000 cells per well in 96-well plates. Cells are incubated overnight in full growth medium in order to allow expression of the transgenes. […] Baseline activity is controled with stimulation buffer alone. These solutions are pre-warmed to 37° C. for 30 min. Cells are rinsed with pre-warmed (37° C.) stimulation buffer, and incubated with 100 μl of the pre-warmed peptide dilutions and control for 5 hr at 37° C., 5% CO2. The LucLite enzyme substrate/lysis buffer is prepared shortly before the end of the incubation. 100 μl LucLite substrate are added to each well, and light emission is counted on a suitable counter (e.g. Wallac VictorII). EC50 values are derived from the raw data by fitting with a four parameter logistic equation (Microcal Origin 5.0 or GraphPad 4).

[3] = test system: male C57BL mice; assay: In vivo stimulation of intestinal growth, 800 nmol/kg (Example 10); design: key to Small intestine-colon sensitivity index: (SI/Colon) of compound divided by (SI/Colon) of reference GLP-2; settings: 800 nmol/kg s.c. once daily for 3 days; for Sensitivity index Si/Colon / Sensitivity index Stomach/Co: relative to 1559; for Colon: colon mass relative to BW, % vs. [Gly2]GLP-2; for SI (% vs. [Gly2]GLP-2: small intestine mass relative to BW, [Gly2]GLP-2 = 100%
Source text: Individual groups (n=6-10) of mice were given 800 nmol/kg of each compound, s.c, once daily for three consecutive days. For comparison purposes other groups of animals were given either an equimolar dose of [[…]]GLP-2 (ZP1559) or vehicle (phosphate buffered saline, pH 7.4) in the same dosing regimen Twenty-four hours after the last dose of compound had been given the mice were sacrificed and the small intestine (from the pylorus to the cecum) and the colon (intestine distal to cecum) was emptied and weighed. To correct for slight difference in body weight (BW), the organ mass of the small intestine (SI) and colon were expressed relative to BW. The non-selective reference compound [[…]]GLP-2 has been reported to stimulate gastrointestinal growth in both esophagus, stomach, small intestine and colon and to evaluate differences in growth pattern induced by compounds, the small intestine-colon sensitivity index of compound X was calculated as: […]

[4] = test system: male C57BL mice; assay: In vivo stimulation of stomach growth, 200 nmol/kg (Example 12)
Protocol: The effects of the test compounds according to the invention were determined based on the ability of the peptides to selectively increase stomach mass, relative to vehicle control. The ability of the present compounds (ZP2395, ZP2396, ZP2400, ZP2412, ZP2394 and ZP2401) to selectively stimulate stomach mass, relative to colon mass was determined in male C57BL mice. Individual groups (n=6-10) of mice were given 200 nmol/kg of each compound, s.c, once daily for three consecutive days. For comparison purposes other groups of animals were given either an equimolar dose of [[…]]GLP-2 or vehicle (phosphate buffered saline, pH 7.4) in the same dosing regimen. Twenty-four hours after the last dose of compound had been given the mice were sacrificed and the stomach and small intestine (from the pylorus to the ileocaecal junction) emptied and weighed. To correct for slight difference in body weight (BW), the organ mass of the stomach is presented relative to BW. […] To evaluate the differential growth pattern induced by ZP compounds, compared to [[…]]GLP-2, on the stomach, the stomach-colon sensitivity index of compound X was calculated as: (Stomach/Colon)x/Stomach/(Colon)[[…]]GLP-2% Compounds with a stomach/colon sensitivity greater than or equal to 1.05 were considered relatively selective for the stomach.

[5] = test system: male C57BL mice; assay: In vivo stimulation of intestinal growth, 200 nmol/kg (Example 11)
Protocol: The ability of further compounds to selectively stimulate small intestinal mass, relative to colon mass was determined in male C57BL mice. A similar protocol was used to that described above in Example 10 except that 200 nmol/kg of each compound was administered per day. Thus, individual groups (n=6-10) of mice were given 200 nmol/kg of each compound, s.c, once daily for three consecutive days. Other groups of animals were given either an equimolar dose of [[…]]GLP-2 (reference compound) or vehicle (phosphate buffered saline, pH 7.4; negative controls) in the same dosing regimen. Twenty-four hours after the last dose of compound the mice were sacrificed and the stomach, small intestine and the colon emptied and weighed.

[6] = biological target: T2, hGLP-2 receptor (human, UniProt O95838 1-553); assay: cell-based or functional assay
T2 sequence (looked up): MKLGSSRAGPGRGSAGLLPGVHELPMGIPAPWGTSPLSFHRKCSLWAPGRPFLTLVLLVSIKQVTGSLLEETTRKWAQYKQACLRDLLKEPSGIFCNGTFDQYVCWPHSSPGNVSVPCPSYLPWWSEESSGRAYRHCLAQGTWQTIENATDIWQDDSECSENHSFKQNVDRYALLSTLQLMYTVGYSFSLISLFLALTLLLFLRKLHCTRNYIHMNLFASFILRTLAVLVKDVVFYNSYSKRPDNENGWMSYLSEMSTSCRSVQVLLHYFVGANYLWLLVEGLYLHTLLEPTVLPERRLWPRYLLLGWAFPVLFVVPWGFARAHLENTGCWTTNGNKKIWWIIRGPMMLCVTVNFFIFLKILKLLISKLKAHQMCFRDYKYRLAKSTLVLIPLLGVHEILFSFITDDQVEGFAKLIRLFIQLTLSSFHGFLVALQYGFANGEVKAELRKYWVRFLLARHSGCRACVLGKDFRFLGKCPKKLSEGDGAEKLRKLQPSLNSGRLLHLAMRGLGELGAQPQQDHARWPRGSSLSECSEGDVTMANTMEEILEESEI

[7] = BHK21 cells transiently transfected with GLP-2 receptor and CRE-luciferase, 10 fM to 10 nM, read-out: pEC50 (converted)

Molecule: C[C@H](N)C(=O)O [Ala]
HBP for the individual amino acids [1]: 0

Molecule: N=C(N)NCCC[C@H](N)C(=O)O [Arg]
HBP for the individual amino acids [1]: 3

Molecule: NC(=O)C[C@H](N)C(=O)O [Asn]
HBP for the individual amino acids [1]: 3

Molecule: N[C@@H](CC(=O)O)C(=O)O [Asp]
HBP for the individual amino acids [1]: 3

Molecule: N[C@@H](CS)C(=O)O [Cys]
HBP for the individual amino acids [1]: 0

Molecule: NC(=O)CC[C@H](N)C(=O)O [Gln]
HBP for the individual amino acids [1]: 3

Molecule: N[C@@H](CCC(=O)O)C(=O)O [Glu]
HBP for the individual amino acids [1]: 3

Molecule: NCC(=O)O [Gly]
HBP for the individual amino acids [1]: 0

Molecule: N[C@@H](Cc1c[nH]cn1)C(=O)O [His]
HBP for the individual amino acids [1]: 1

Molecule: CC(C)C[C@H](N)C(=O)O [Leu]
HBP for the individual amino acids [1]: 0

Molecule: NCCCC[C@H](N)C(=O)O [Lys]
HBP for the individual amino acids [1]: 2

Molecule: CSCC[C@H](N)C(=O)O [Met]
HBP for the individual amino acids [1]: 0

Molecule: N[C@@H](Cc1ccccc1)C(=O)O [Phe]
HBP for the individual amino acids [1]: 0

Molecule: O=C(O)[C@@H]1CCCN1 [Pro]
HBP for the individual amino acids [1]: 0

Molecule: N[C@@H](CO)C(=O)O [Ser]
HBP for the individual amino acids [1]: 2

Molecule: C[C@@H](O)[C@H](N)C(=O)O [Thr]
HBP for the individual amino acids [1]: 2

Molecule: N[C@@H](Cc1c[nH]c2ccccc12)C(=O)O [Trp]
HBP for the individual amino acids [1]: 1

Molecule: N[C@@H](Cc1ccc(O)cc1)C(=O)O [Tyr]
HBP for the individual amino acids [1]: 2

Molecule: CC(C)[C@H](N)C(=O)O [Val]
HBP for the individual amino acids [1]: 0

EC50 [2, 7]: 0.558 nM
Molecule: H-HGEGSFSDELETILEELAAEDFIEWLIETKITD-NH2 [ZP2266]
Colon-BW, compared to 1559 in % [3]: 100.6% | Organ selectivity (FIG. 8, unselective compounds) [3]: unselective for the small intestine, colon or stomach | SI-BW, compared to 1559 in % [3]: 95.3% | Sto-BW, compared to 1559 in % [3]: 93.6% | Sensitivity index Si/Colon [3]: 0.95 | Sensitivity index Stomach/Co [3]: 0.93 | Colon [3]: 101 ± 2% | SI (% vs. [Gly2]GLP-2 [3]: 95 ± 1%

EC50 [2, 7]: 0.0912 nM
Molecule: H-HGEGSFSDELKTILESLAAADFIEWLIQTKITD-NH2 [ZP2269]
Colon-BW, compared to 1559 in % [3]: 94.7% | Organ selectivity (FIG. 8, unselective compounds) [3]: unselective for the small intestine, colon or stomach | SI-BW, compared to 1559 in % [3]: 97.4% | Sto-BW, compared to 1559 in % [3]: 99.8% | Sensitivity index Si/Colon [3]: 1.03 | Sensitivity index Stomach/Co [3]: 1.05 | Colon [3]: 95 ± 3% | SI (% vs. [Gly2]GLP-2 [3]: 97 ± 2%

Molecule: H-HGEGSFSDELNTILESLAASDFISWLISTKITD-NH2 [ZP2270]
EC50 [2]: 0.0589 nM

EC50 [2, 7]: 0.0145 nM
Molecule: H-HGEGSFSDELSTILESLAASDFISWLISTKITD-NH2 [ZP2263]

Molecule: H-HGEGSFSSELSTILDALAARDFIAWLIATKITDK-OH [ZP2242]
Colon-BW, compared to 1559 in % [3]: 106.6% | Preferential stimulation of epithelial growth in the small intestine (summary) [3]: preferentially stimulating epithelial growth in the small intestine | SI-BW, compared to 1559 in % [3]: 111.7% | Sto-BW, compared to 1559 in % [3]: 99.6% | Sensitivity index Si/Colon [3]: 1.05 | Sensitivity index Stomach/Co [3]: 0.93 | Colon [3]: 107 ± 3% | SI (% vs. [Gly2]GLP-2 [3]: 111 ± 2% | Sensitivity index Stomach/Co ([4]; ratio Stomach-BW / Colon-BW): 0.93 | Stomach-BW, compared to 1559 in % ([4]; stomach weight relative to body weight, relative to ZP1559): 99.6% | Colon-BW, compared to 1559 in % ([5]; colon weight relative to body weight, relative to ZP1559): 106.6% | Sensitivity index Si/Co ([5]; ratio SI-BW / Colon-BW): 1.05 | SI-BW, compared to 1559 in % ([5]; small intestine weight relative to body weight, relative to ZP1559): 111.7%

Molecule: H-[Gly2]hGLP-2-OH (H-HGDGSFSDEMNTILDNLAARDFINWLIQTKITD-OH) [[Gly2]GLP-2, GLP-2 with alanine in position 2 replaced with glycine, reference compound]
Small intestine-colon sensitivity index ([3]; (SI/Colon)x/(SI/Colon)[Gly2]GLP-2): 1.00 ± 0.02 | Colon [3]: 100 ± 2% | SI (% vs. [Gly2]GLP-2 [3]: 100 ± 1%

pEC50 (CRE-luciferase reporter, BHK-21 cells transiently transfected with hGLP-2 receptor) [6]: 11.5
B1: ZP2264 (peptide)
peptide: H-HGEGSFSDELATILEALAAADFIAWLIATKITD-NH2

pEC50 (CRE-luciferase reporter, BHK-21 cells transiently transfected with hGLP-2 receptor) [6]: 10
B2: ZP2269 (peptide)
peptide: H-HGEGSFSDELKTILESLAAADFIEWLIQTKITD-NH2

pEC50 (CRE-luciferase reporter, BHK-21 cells transiently transfected with hGLP-2 receptor) [6]: 11.3
B3: ZP2272 (peptide)
peptide: H-HGEGSFSDELATILESLAAADFISWLIATKITD-NH2

pEC50 (CRE-luciferase reporter, BHK-21 cells transiently transfected with hGLP-2 receptor) [6]: 10.2
B4: ZP2270 (peptide)
peptide: H-HGEGSFSDELNTILESLAASDFISWLISTKITD-NH2

pEC50 (CRE-luciferase reporter, BHK-21 cells transiently transfected with hGLP-2 receptor) [6]: 10.9
B5: ZP2267 (peptide)
peptide: H-HGEGSFSDELSTILESLAAADFIAWLIATKITD-NH2

pEC50 (CRE-luciferase reporter, BHK-21 cells transiently transfected with hGLP-2 receptor) [6]: 10.8
B6: ZP2263 (peptide)
peptide: H-HGEGSFSDELSTILESLAASDFISWLISTKITD-NH2

pEC50 (CRE-luciferase reporter, BHK-21 cells transiently transfected with hGLP-2 receptor) [6]: 11.2
B7: ZP2268 (peptide)
peptide: H-HGEGSFSDELATILEALAASDFISWLISTKITD-NH2

pEC50 (CRE-luciferase reporter, BHK-21 cells transiently transfected with hGLP-2 receptor) [6]: 12.4
B8: ZP2242 (peptide)
peptide: H-HGEGSFSSELSTILDALAARDFIAWLIATKITDK-OH

pEC50 (CRE-luciferase reporter, BHK-21 cells transiently transfected with hGLP-2 receptor) [6]: 9.25
B9: ZP2266 (peptide)
peptide: H-HGEGSFSDELETILEELAAEDFIEWLIETKITD-NH2
